Source: patent publication US10426775B2, “Methods for treating Friedreich's ataxia with etravirine” (Fratagene Therapeutics srl, priority 2017, dated 2019)
Residues, ends and D or L forms follow the SMILES beside them. *: point of attachment. Cbz = O=C(OCc1ccccc1)*

What was measured:
frataxin-ProLabel fusion = test: frataxin-ProLabel cell-based reporter assay (β-galactosidase enzyme fragment complementation), library screening; design: species or system human; settings: frataxin-ProLabel transfected cells treated with MG132
Procedure: The FDA-approved drug library (SELLECKCHEM SCREENING LIBRARIES®) that was used in the screening was composed of 853 drugs. The library was provided in a total of ten 96-well plate, with the drugs at a stock concentration of 10 mM in dimethyl sulfoxide (DMSO). To evaluate the effect of drugs on frataxin abundance, we generated a fusion construct between frataxin and ProLabel that was used as a reporter in a cell-based assay. The system is based on […] enzyme fragment complementation (Eglen, 2002). […] Indeed, treatment of frataxin-ProLabel transfected cells with MG132 promotes frataxin accumulation, which results in a 5-fold increase in the intensity of the luminescence signal. […]
For the screening, HEK-293 cells were transiently transfected with pCMV-fxn-ProLabel. […] After 24 hours, the complementary β-galactosidase subunit and the substrate were added and chemiluminescence emission was measured by luminometer reading. […] The chemiluminescent signal was monitored over a period of 210 minutes. […]
To analyse the FDA-approved drug screening results, an arbitrary threshold was established for each plate as the average of the luminescence measured in all the wells of the plate plus 2 standard deviations. Luminescence signal from each well was then normalized on threshold value. […]

[1] = test system: newly synthesized frataxin mRNA; test: Nascent frataxin transcripts (EU metabolic labeling, Click-iT capture, real-time PCR) in HEK293-fxn; format: cell-based, human; settings: 10 μM, 4 or 8 hours
From the text: We then investigated whether the observed increase in frataxin protein levels is due to an upregulation of the frataxin mRNA, either promoted by an increase in the […] rate of frataxin mRNA or by its stabilization. To understand whether etravirine promotes de novo synthesis of frataxin mRNA, we metabolically labeled nascent transcripts through the incorporation of 5-ethynyl uridine (EU). Through a click chemistry-based reaction, biotin was then conjugated to EU-labelled transcripts, thus allowing selective isolation and analysis of newly synthesized mRNA. We therefore quantitatively analyzed the relative amount of newly synthesized frataxin mRNA in etravirine-treated HEK293-fxn cells, compared to untreated control cells. […] We then analyzed the effect of etravirine on the decay of frataxin transcript observed upon treatment with actinomycin. HEK293-fxn cells were treated with actinomycin for 4, 8 or 12 hours in the presence or absence of etravirine and frataxin mRNA was quantitated by RT-PCR.
HEK 293-fxn stably expressing frataxin (A), HEK 293 (B), or FRDA lymphoblast cell line GM16203 (C) were treated with 10 μM etravirine for the indicated time points. Protein extracts were resolved on SDS-PAGE and analyzed by western blot with anti-frataxin antibody and anti-tubulin as a loading control. Etr: etravirine; tub: tubulin; fxn pre: frataxin precursor. […]

Row | SMILES | increase in the intensity of the luminescence signal (frataxin-ProLabel fusion) | relative amount of newly synthesized frataxin mRNA vs untreated control cells [1]
1 | CC(C)C[C@@H](C=O)NC(=O)[C@H](CC(C)C)NC(=O)[C@H](CC(C)C)NC(=O)OCc1ccccc1 [MG132] (Cbz-Leu-Leu-Leu-aldehyde) | 5 fold | –
2 | O=C(CCCCCCC(=O)Nc1ccccc1)NO [Vorinostat] | – | significantly upregulates
